Molecules are shown by their SMILES. Bounds are passed on as bounds.

The target of one assay is full length MALT1 (Homo sapiens (Human), UniProt Q9UDY8). Nature of the assay: MALT1 Biochemical Assay. The note with it: 15 nM enzyme, 30 μM peptide substrate Ac-Leu-Arg-Ser-Arg-Rh110-dPro, 30 min pre-incubation, 60 min reaction; mean value if tested more than once. The protocol:
Inhibitor potency was evaluated by measuring enzymatic activity of full length MALT1 at varying concentrations of compound. The enzymatic assay consists of a single substrate reaction that monitors the release of a fluorescent dye upon cleavage of the peptide substrate. […] The assay buffer consists of 50 mM Hepes, pH 7.5, 0.8 M sodium citrate, 1 mM DTT, 0.004% tween-20, and 0.005% bovine serum albumin (BSA). […] The reaction was quenched after 60 minutes with the addition of iodoacetate at a final concentration of 10 mM. Total fluorescence was measured using an Envision (PerkinElmer) with fluorescence excitation at 485 nm and emission at […].
For potency determination, 1 μL of serially diluted compound (in 100% DMSO) was pre-incubated with 40 μL of enzyme for 30 minutes. The reaction was initiated with the addition of 10 μL of peptide substrate. The relative fluorescence units were transformed to percent inhibition by using 0% and 100% inhibition controls as reference. […] IC50 values were calculated by fitting the concentration-response curves to a four-parameter logistic equation in GraphPad Prism.

Assay [1] relates to IL-2 in Jurkat (ATCC, clone E6.1) cells stimulated with anti-CD3/28/2. Description: Jurkat IL-2 Assay. The note with it: Homo sapiens; IL-2 inhibition, Jurkat cells, 30 min compound then anti-CD3/28/2 stimulation for 24 hours; mean value if tested more than once; read-out: IC50. The assay is classed as cell-based. The protocol:
Inhibition was determined in a cell-based assay using Jurkat (ATCC, clone E6.1), an immortalized T-cell line, exposed to a dose response of compound and assessed for viability, and Il-2 inhibition by ELISA. Cells were cultured in RPMI/10% FBS (Invitrogen 11875093, Atlanta Biologicals S12450H), maintained below 3E6/mL and only used in assays while below passage 25. Compounds were stamped by ECHO onto 384w plates (PerkinElmer Culturplate, 6007680). The cells were plated in fresh media on top of compound and incubated for 30 minutes before stimulation with soluble anti-CD3/28/2 (Stemcell, 10970) for 24 hours. Supernatant was collected and assessed for Il-2 (MSD, 384w, L21SA-1). To assess viability of cells treated with compound, cells were lysed with CTG reagent (Promega, G7570), and measured by luminometer. […] IC50s calculated using 4-parameter fit in GraphPad Prism.
In this table, “A” indicates IC50 of less than 0.1 μM; “B” indicates IC50 from 0.1 μM up to 1 μM; and “C” indicates IC50 of greater than 1 μM. “N/A” indicates not tested. For a compound that was tested in more than one experiment, the result shown represents the mean value.

Chain of full length MALT1 (Q9UDY8 whole entry): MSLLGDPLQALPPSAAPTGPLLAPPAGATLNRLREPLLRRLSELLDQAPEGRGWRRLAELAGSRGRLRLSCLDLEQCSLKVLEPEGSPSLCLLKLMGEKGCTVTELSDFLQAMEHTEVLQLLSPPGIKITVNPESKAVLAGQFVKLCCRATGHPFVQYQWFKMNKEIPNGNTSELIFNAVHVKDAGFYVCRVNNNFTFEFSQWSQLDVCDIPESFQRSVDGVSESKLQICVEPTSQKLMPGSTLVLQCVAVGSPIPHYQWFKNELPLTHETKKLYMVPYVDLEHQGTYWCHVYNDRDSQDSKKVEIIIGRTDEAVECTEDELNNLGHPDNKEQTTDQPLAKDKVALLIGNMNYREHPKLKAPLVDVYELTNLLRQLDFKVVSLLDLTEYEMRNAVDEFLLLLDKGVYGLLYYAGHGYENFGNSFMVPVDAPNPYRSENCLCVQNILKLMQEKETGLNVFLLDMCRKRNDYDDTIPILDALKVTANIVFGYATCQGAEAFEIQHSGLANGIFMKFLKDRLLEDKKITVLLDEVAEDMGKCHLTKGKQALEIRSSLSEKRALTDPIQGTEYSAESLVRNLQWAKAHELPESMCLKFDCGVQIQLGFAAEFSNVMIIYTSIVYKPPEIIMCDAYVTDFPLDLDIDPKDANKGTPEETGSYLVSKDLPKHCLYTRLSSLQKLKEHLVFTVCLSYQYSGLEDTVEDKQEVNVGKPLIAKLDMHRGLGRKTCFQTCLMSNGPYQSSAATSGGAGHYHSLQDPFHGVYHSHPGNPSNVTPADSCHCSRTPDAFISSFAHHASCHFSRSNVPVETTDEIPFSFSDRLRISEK

The term IC50 denotes the concentration at which inhibition is half-maximal. In the case of `CO[C@@H](C)c1c(Nc2ccc([C@H](N(C)C(C)=O)C(F)(F)F)cc2)cnc2nc(Cl)nn12` [Compound 1.2, N-[(1S)-1-[4-({2-chloro-7-[(1S)-1-methoxyethyl]-[1,2,4]triazolo[1,5-a]pyrimidin-6-yl}amino)phenyl]-2,2,2-trifluoroethyl]-N-methylacetamide], the IC50 (on full length MALT1; in assay [1]) was 100 to 1000 nM throughout.
As for `CO[C@@H](C)c1c(Nc2ccc([C@H](N(C)C(=O)C3CCCCO3)C(F)(F)F)cc2)cnc2nc(Cl)nn12` (stereo partly drawn) [Compound 1.3, N-[(1S)-1-[4-({2-chloro-7-[(1S)-1-methoxyethyl]-[1,2,4]triazolo[1,5-a]pyrimidin-6-yl}amino)phenyl]-2,2,2-trifluoroethyl]-N-methyloxane-2-carboxamide], the IC50 (at full length MALT1; in assay [1]) was 100 to 1000 nM throughout.
As for `COC(=O)[C@H]1CC[C@H](C(=O)N(C)[C@@H](c2ccc(Nc3cnc4nc(Cl)nn4c3[C@H](C)OC)cc2)C(F)(F)F)CC1` [Compound 1.4, methyl(1r,4r)-4-{[(1S)-1-[4-({2-chloro-7-[(1S)-1-methoxyethyl]-[1,2,4]triazolo[1,5-a]pyrimidin-6-yl}amino)phenyl]-2,2,2-trifluoroethyl] (methyl)carbamoyl}cyclohexane-1-carboxylate], the IC50 (against full length MALT1; in assay [1]) was 100 to 1000 nM each time.
For the compound `CO[C@@H](C)c1c(Nc2ccc([C@H](N(C)C(=O)C3CCSCC3)C(F)(F)F)cc2)cnc2nc(Cl)nn12` [Compound 1.5, N-[(1S)-1-[4-({2-chloro-7-[(1S)-1-methoxyethyl]-[1,2,4]triazolo[1,5-a]pyrimidin-6-yl}amino)phenyl]-2,2,2-trifluoroethyl]-N-methylthiane-4-carboxamide], the IC50 is under 100 nM against full length MALT1 and 100 to 1000 nM in assay [1].
In the case of `CO[C@@H](C)c1c(Nc2ccc([C@H](N(C)C(=O)C3CCOC3)C(F)(F)F)cc2)cnc2nc(Cl)nn12` (some centres unmarked) [Compound 1.6], the IC50 at full length MALT1 is under 100 nM; in assay [1], 100 to 1000 nM.
Taken in the same sequence, the figures for `CO[C@@H](C)c1c(Nc2ccc([C@H](N(C)C(=O)C3CCC4(CC3)OCCO4)C(F)(F)F)cc2)cnc2nc(Cl)nn12` [Compound 1.7, N-[(1S)-1-[4-({2-chloro-7-[(1S)-1-methoxyethyl]-[1,2,4]triazolo[1,5-a]pyrimidin-6-yl}amino)phenyl]-2,2,2-trifluoroethyl]-N-methyl-1,4-dioxaspiro[4.5]decane-8-carboxamide] were under 100 nM and 100 to 1000 nM.
In the same order, the values of `CO[C@@H](C)c1c(Nc2ccc([C@H](N(C)C(=O)[C@H]3C[C@H](C#N)C3)C(F)(F)F)cc2)cnc2nc(Cl)nn12` [Compound 1.9, (1r,3S)—N—((S)-1-(4-((2-chloro-7-((S)-1-methoxyethyl)-[1,2,4]triazolo[1,5-a]pyrimidin-6-yl)amino)phenyl)-2,2,2-trifluoroethyl)-3-cyano-N-methylcyclobutane-1-carboxamide] are 100 to 1000 nM and 100 to 1000 nM.
In the same order, the values of `CO[C@@H](C)c1c(Nc2ccc([C@H](N(C)C(=O)C3CCN(C(=O)OC(C)(C)C)CC3)C(F)(F)F)cc2)cnc2nc(Cl)nn12` [Compound 1.10, tert-butyl 4-{[(1S)-1-[4-({2-chloro-7-[(1S)-1-methoxyethyl]-[1,2,4]triazolo[1,5-a]pyrimidin-6-yl}amino)phenyl]-2,2,2-trifluoroethyl](methyl)carbamoyl}piperidine-1-carboxylate] are 100 to 1000 nM and 100 to 1000 nM.
Regarding `CO[C@@H](C)c1c(Nc2ccc([C@H](N(C)C(=O)C3CCCN(C(=O)OC(C)(C)C)C3)C(F)(F)F)cc2)cnc2nc(Cl)nn12` (stereo partly drawn) [Compound 1.11, Tert-butyl 3-{[(1S)-1-[4-({2-chloro-7-[(1S)-1-methoxyethyl]-[1,2,4]triazolo[1,5-a]pyrimidin-6-yl}amino)phenyl]-2,2,2-trifluoroethyl](methyl)carbamoyl}piperidine-1-carboxylate], the IC50 was 100 to 1000 nM against full length MALT1 and over 1000 nM in assay [1].
In the same order, the values of `CO[C@@H](C)c1c(Nc2ccc([C@H](N(C)C(=O)C3CCN(C(=O)OC(C)(C)C)C3)C(F)(F)F)cc2)cnc2nc(Cl)nn12` (stereo partly drawn) [Compound 1.12, Tert-butyl 3-{[(1S)-1-[4-({2-chloro-7-[(1S)-1-methoxyethyl]-[1,2,4]triazolo[1,5-a]pyrimidin-6-yl}amino)phenyl]-2,2,2-trifluoroethyl](methyl)carbamoyl}pyrrolidine-1-carboxylate] are 100 to 1000 nM and over 1000 nM.
Taken in the same sequence, the figures for `CO[C@@H](C)c1c(Nc2ccc([C@H](N(C)C(=O)C3CCC(CNC(=O)OC(C)(C)C)CC3)C(F)(F)F)cc2)cnc2nc(Cl)nn12` (stereo partly drawn) [Compound 1.13, tert-butyl N-[(4-{[(1S)-1-[4-({2-chloro-7-[(1S)-1-methoxyethyl]-[1,2,4]triazolo[1,5-a]pyrimidin-6-yl}amino)phenyl]-2,2,2-trifluoroethyl](methyl)carbamoyl}cyclohexyl)methyl]carbamate] were 100 to 1000 nM and 100 to 1000 nM.
In the same order, the values of `CO[C@@H](C)c1c(Nc2ccc([C@H](N(C)C(=O)[C@H]3CC[C@H](OC)CC3)C(F)(F)F)cc2)cnc2nc(Cl)nn12` [Compound 1.14, (1r,4S)—N—((S)-1-(4-((2-chloro-7-((S)-1-methoxyethyl)-[1,2,4]triazolo[1,5-a]pyrimidin-6-yl)amino)phenyl)-2,2,2-trifluoroethyl)-4-methoxy-N-methylcyclohexane-1-carboxamide] are under 100 nM and 100 to 1000 nM.
Consider `COC(=O)NC1CCC(C(=O)N(C)[C@@H](c2ccc(Nc3cnc4nc(Cl)nn4c3[C@H](C)OC)cc2)C(F)(F)F)CC1` (stereo partly drawn) [Compound 1.16, methyl (4-(((S)-1-(4-((2-chloro-7-((S)-1-methoxyethyl)-[1,2,4]triazolo[1,5-a]pyrimidin-6-yl)amino)phenyl)-2,2,2-trifluoroethyl)(methyl)carbamoyl)cyclohexyl)carbamate], for which the IC50 is under 100 nM against full length MALT1 and 100 to 1000 nM in assay [1].
Consider `CO[C@@H](C)c1c(Nc2ccc([C@H](N(C)C(=O)C3CCC(NC(C)=O)CC3)C(F)(F)F)cc2)cnc2nc(Cl)nn12` (stereo partly drawn) [Compound 1.17, N-[(1S)-1-[4-({2-chloro-7-[(1S)-1-methoxyethyl]-[1,2,4]triazolo[1,5-a]pyrimidin-6-yl}amino)phenyl]-2,2,2-trifluoroethyl]-4-acetamido-N-methylcyclohexane1-carboxamide], for which the IC50 against full length MALT1 is under 100 nM; in assay [1] it was 100 to 1000 nM.
In the same order, the values of `CO[C@@H](C)c1c(Nc2ccc(C(C)N(C)C(=O)C3CCC3)cc2)cnc2nc(Cl)nn12` (stereo partly drawn) [Compound 1.20, N-{1-[4-({2-chloro-7-[(1S)-1-methoxyethyl]-[1,2,4]triazolo[1,5-a]pyrimidin-6-yl}amino)phenyl]ethyl}-N-methylcyclobutanecarboxamide] are over 1000 nM and over 1000 nM.
Taken in the same sequence, the figures for `CO[C@@H](C)c1c(Nc2ccc(C(C)N(C)C(=O)C3CCCCC3)cc2)cnc2nc(Cl)nn12` (stereo partly drawn) [Compound 1.21, N-{1-[4-({2-chloro-7-[(1S)-1-methoxyethyl]-[1,2,4]triazolo[1,5-a]pyrimidin-6-yl}amino)phenyl]ethyl}-N-methylcyclohexanecarboxamide] were over 1000 nM and over 1000 nM.

For the origin of these results see patent US20230391781A1, “MALT1 MODULATORS AND USES THEREOF” (Rheos Medicines, Inc., priority 2020, published 2023).
